How the values were obtained:
Type in all cases: cell-based
[1] = test system: 16 HPV-positive and 17 HPV-negative HNSCC and cervical squamous cancer cell lines; assay: High-throughput drug screen (HTDS), whole panel, comparison by HPV status; conditions: AOC_LD as a dichotomous variable
Experimental: (§1) The concordance correlation coefficient was computed to assess the reproducibility of the normalized growth rates of the 2 replicates. […] A chi-square test was applied to compare drug classification and the cluster membership. The Fisher exact test was applied to compare mutations status (wild-type and mutant) and drugs' response data (sensitive and resistant).
(§2) The effects of 864 unique drugs from 51 classes was tested in 16 HPV-positive and 17 HPV-negative HNSCC and cervical squamous cancer cell lines (Table 2) that were characterized previously (Kaiu, et al., Oncotarget 2017; 8(49):86369-83).

[2] = test system: 16 HPV-positive HNSCC and cervical squamous cancer cell lines; assay: High-throughput drug screen (HTDS), cell death by AOC_LD, HPV-positive cell lines; conditions: for HPV positive Resistant (number of cell lines): resistant = AOC_LD 0; for HPV positive Sensitive (number of cell lines): sensitive = AOC_LD greater than 0
Experimental: as §1, §2

[3] = test system: 17 HPV-negative HNSCC and cervical squamous cancer cell lines; assay: High-throughput drug screen (HTDS), cell death by AOC_LD, HPV-negative cell lines; conditions: for HPV negative Resistant (number of cell lines): resistant = AOC_LD 0; for HPV negative Sensitive (number of cell lines): sensitive = AOC_LD greater than 0
Experimental: as §1, §2

Cc1csc(-c2nnc(Nc3ccc(Oc4ncccc4-c4ccnc(N)n4)cc3)c3ccccc23)c1 [AMG900]
efficacy in HPV-positive vs HPV-negative cell lines [1]: tended to be more effective in HPV-positive cell lines

COc1cc(NS(C)(=O)=O)ccc1Nc1c2ccccc2nc2ccccc12 [AMSACRINE]
HPV positive Resistant (number of cell lines) [2]: 5 | HPV positive Sensitive (number of cell lines) [2]: 11 | HPV negative Resistant (number of cell lines) [3]: 15 | HPV negative Sensitive (number of cell lines) [3]: 2

O=C(Nc1c[nH]nc1-c1nc2ccc(CN3CCOCC3)cc2[nH]1)NC1CC1 [AT9283]
HPV positive Resistant (number of cell lines) [2]: 3 | HPV positive Sensitive (number of cell lines) [2]: 13 | HPV negative Resistant (number of cell lines) [3]: 10 | HPV negative Sensitive (number of cell lines) [3]: 7

CNC(=O)c1ccccc1Sc1ccc2c(/C=C/c3ccccn3)n[nH]c2c1 [AXITINIB]
HPV positive Resistant (number of cell lines) [2]: 8 | HPV positive Sensitive (number of cell lines) [2]: 8 | HPV negative Resistant (number of cell lines) [3]: 16 | HPV negative Sensitive (number of cell lines) [3]: 1

CN(C)c1ccc(-c2nc3ncc(Cl)c(N4CCN(CC(=O)Nc5nccs5)CC4)c3[nH]2)cc1 [CCT129202]
efficacy in HPV-positive vs HPV-negative cell lines [1]: tended to be more effective in HPV-positive cell lines

Cc1cc(CN2CCN(c3c(Br)cnc4nc(-c5ccc(N6CCN(C)CC6)cc5)[nH]c34)CC2)no1 [CCT137690]
efficacy in HPV-positive vs HPV-negative cell lines [1]: tended to be more effective in HPV-positive cell lines

COc1cc2c(c(OC)c1OC)-c1ccc(OC)c(=O)cc1[C@@H](NC(C)=O)CC2 [COLCHICINE]
HPV positive Sensitive (number of cell lines) [2]: 15 | HPV negative Sensitive (number of cell lines) [3]: 10

CN1CCN(c2ccc3nc(-c4c(N)c5c(F)cccc5[nH]c4=O)[nH]c3c2)CC1 [DOVITINIB]
HPV positive Resistant (number of cell lines) [2]: 10 | HPV positive Sensitive (number of cell lines) [2]: 6 | HPV negative Resistant (number of cell lines) [3]: 16 | HPV negative Sensitive (number of cell lines) [3]: 1

COc1cc([C@@H]2c3cc4c(cc3[C@@H](O[C@@H]3O[C@@H]5CO[C@@H](C)O[C@H]5[C@H](O)[C@H]3O)[C@H]3COC(=O)[C@H]23)OCO4)cc(OC)c1O [ETOPOSIDE]
HPV positive Resistant (number of cell lines) [2]: 7 | HPV positive Sensitive (number of cell lines) [2]: 9 | HPV negative Resistant (number of cell lines) [3]: 15 | HPV negative Sensitive (number of cell lines) [3]: 2

Nc1nc(F)nc2c1ncn2[C@@H]1O[C@H](CO)[C@@H](O)[C@@H]1O [FLUDARABINE]
HPV positive Resistant (number of cell lines) [2]: 13 | HPV positive Sensitive (number of cell lines) [2]: 3 | HPV negative Resistant (number of cell lines) [3]: 6 | HPV negative Sensitive (number of cell lines) [3]: 11

O=C(O)[C@]1(Cc2cccc(Nc3nccs3)n2)CC[C@@H](Oc2cccc(Cl)c2F)CC1 [MK5108]
efficacy in HPV-positive vs HPV-negative cell lines [1]: tended to be more effective in HPV-positive cell lines

O=C(O)c1ccc(Nc2ncc3c(n2)-c2ccc(Cl)cc2C(c2c(F)cccc2F)=NC3)cc1 [MLN8054]
efficacy in HPV-positive vs HPV-negative cell lines [1]: tended to be more effective in HPV-positive cell lines

CCc1cccc(CC)c1NC(=O)N1Cc2n[nH]c(NC(=O)c3ccc(N4CCN(C)CC4)cc3)c2C1 [PHA680632]
efficacy in HPV-positive vs HPV-negative cell lines [1]: tended to be more effective in HPV-positive cell lines

CCS(=O)(=O)c1cccc(-c2cc(C(=O)NC3CCN(C)CC3)c(C)c3[nH]c4ncc(C)cc4c23)c1 [TAK901]
efficacy in HPV-positive vs HPV-negative cell lines [1]: tended to be more effective in HPV-positive cell lines

CO[C@@H](C(=O)N1Cc2n[nH]c(NC(=O)c3ccc(N4CCN(C)CC4)cc3)c2C1)c1ccccc1 [danusertib]
efficacy in HPV-positive vs HPV-negative cell lines [1]: tended to be more effective in HPV-positive cell lines
